One may read the pEC50 as −log10 of the EC50, conventionally taken in molar units. A low value points to a high EC50.

Each structure is given as a SMILES string. pEC50: −log10 of the molar value. A value given as a limit tells only on which side of the number the result lay.

Test [1] relates to DENV-1 Djibouti strain D1/H/IMTSSA/98/606. Put plainly: Tetravalent RT-qPCR assay Protocol B, serotype 1. Type of test: cell-based. The note with it: Dengue virus, DENV1, 168 h, RT-qPCR serotype 1 Djibouti, Vero cells, 7 days. On the procedure: Vero cells (4×10^4) were seeded in 96-well plates. After one day, cell culture medium was replaced with 100 μL assay medium containing a 2×, 3× or 5× serial dilution of the compound (concentration range: 50 μg/mL-0.00038 μg/mL, 50 μg/mL-0.0076 μg/mL, and 50 μg/mL-0.00013 μg/mL, respectively) and 100 μL of dengue virus dilution, where a Ct of ˜20 is achieved in RTqPCR. Following a 2 hour incubation period, the cell monolayer was washed 3 times with assay medium to remove residual, non-adsorbed virus and cultures were further incubated for either 4 days (DENV-2 NGC-Tongalike) or 7 days (DENV-1 Djibouti strain D1/H/IMTSSA/98/606, DENV-3 strain H87 prototype, DENV-4 strain H241) in the presence of the inhibitor. Supernatant was harvested and viral RNA load was determined by real-time quantitative RT-PCR. The 50% effective concentration (EC50), which is defined as the compound concentration that is required to inhibit viral RNA replication by 50%, was determined using logarithmic interpolation (Tables 7 and 8).
RNA was isolated from 100 μL supernatant with the NucleoSpin 96 Virus kit (Filter Service, Düren, Germany) as described by the manufacturer. The sequences of the TaqMan primers (DENV-For, DENV-Rev; Table 5) and TaqMan probes (DENV-Probe Table 5) were selected from non-structural gene 3 (NS3) or NSS, of the respective flaviviruses using Primer Express software (version 2.0; Applied Biosystems, Lennik, Belgium). The TaqMan probe was fluorescently labelled with 6-carboxyfluorescein (FAM) at the 5′ end as the reporter dye, and with minor groove binder (MGB) at the 3′ end as the quencher (Table 5). One-step, quantitative RT-PCR was performed in a total volume of 25 μL, containing 13.9375 μL H2O, 6.25 μL master mix (Eurogentec, Seraing, Belgium), 0.375 μL forward primer, 0.375 μL reverse primer, 1 μL probe, 0.0625 μL reverse transcriptase (Eurogentec) and 3 μL sample. RT-PCR was performed using the ABI 7500 Fast Real-Time PCR System (Applied Biosystems, Branchburg, N.J., USA) using the following conditions: 30 min at 48° C. and 10 min at 95° C., followed by 40 cycles of 15 s at 95° C. and 1 min at 60° C. The data was analyzed using the ABI PRISM 7500 SDS software (version 1.3.1; Applied Biosystems). For absolute quantification, standard curves were generated using 10-fold dilutions of template preparations of known concentrations.
Background: Quantitative PCR measures a nucleic acid by following its amplification.

The next test concerns DENV-2 strain 16681. Put plainly: Tetravalent RT-qPCR assay Protocol A, serotype 2. It counts as cell-based. The note with it: Dengue virus, DENV2, 72 h, RT-qPCR serotype 2 16681, Vero cells, 3 days. On the procedure:
The antiviral activity of the compounds of the invention was tested against DENV-1 strain TC974#666 (NCPV), DENV-2 strain 16681, DENV-3 strain H87 (NCPV) and DENV-4 strains H241 (NCPV) and EDEN (SG/06K2270DK1/2005; GenBank accession number QG398256) in a RT-qPCR assay. Therefore, Vero cells were infected with either DENV-1, or -2, or -3, or -4 in the presence or absence of test compounds. At day 3 post-infection, the cells were lysed and cell lysates were used to prepare cDNA of both a viral target (the 3′UTR of DENV; table 2) and a cellular reference gene (β-actin, table 2). Subsequently, a duplex real time PCR was performed on a Lightcycler480 instrument. The generated Cp value is inversely proportional to the amount of RNA expression of these targets. Inhibition of DENV replication by a test compound result in a shift of Cp's for the 3′UTR gene. On the other hand, if a test compound is toxic to the cells, a similar effect on β-actin expression will be observed. The comparative ΔΔCp method is used to calculate EC50, which is based on the relative gene expression of the target gene (3′UTR) normalized with the cellular housekeeping gene (β-actin). In addition, CC50 values were determined based on the Cp values acquired for the housekeeping gene β-actin.
The culture medium consisted of minimal essential medium supplemented with 2% of heat-inactivated fetal calf serum, 0.04% gentamycin (50 mg/mL) and 2 mM of L-glutamine. Vero cells, obtained from ECACC, were suspended in culture medium and 75 μL/well was added in 96-well plates (10000 cells/well), which already contain the antiviral compounds. Typically, these plates contain a 4-fold serial dilution of 9 dilution steps of the test compound at 200 times the final concentration in 100% DMSO (500 nL; final concentration range: 25 μM-0.00038 μM). In addition, each plate contains wells which are assigned as virus controls (containing cells and virus in the absence of compound) and cell controls (containing cells in the absence of virus and compound). Once the cells were added in the plates, the plates were incubated in a fully humidified incubator (37° C., 5% CO2) until the next day. Then, DENV-1 strain TC974#666, DENV-2 strain 16681, DENV-3 strain H87 or DENV-4 strains H241 or EDEN were added. […] In parallel, 25 μL of culture medium was added to the cell controls. Next, the plates were incubated for 3 days in a fully humidified incubator (37° C., 5% CO2). After 3 days, the supernatant was removed from the wells and the cells were washed twice with ice-cold PBS (˜100 μL). The cell pellets within the 96-well plates were stored at −80° C. for at least 1 day. Next, RNA was extracted using the Cells-to-CT™ lysis kit, according to the manufacture's guideline (Applied Biosystems). The cell lysates can be stored at −80° C. or immediately used in the reverse transcription step.
In preparation of the reverse transcription step, mix A (table 3A) was prepared and 7.57 μL/well was dispensed in a 96-well plate. After addition of 5 μL of the cell lysates, a five minute denaturation step at 75° C. was performed (table 3B). Afterwards, 7.43 μL of mix B was added (table 3C) and the reverse transcription step was initiated (table 3D) to generate cDNA.
Finally, a RT-qPCR mix was prepared, mix C (table 4A), dispensed in 96-well LightCycler qPCR plates to which 3 μL of cDNA was added and the qPCR was performed according to the conditions in table 4B on a LightCycler 480.
Using the LightCycler software and an in-house LIMS system, dose response curves for each compound were calculated and the half maximal effective concentration (EC50) and the half maximal cytotoxic concentration (CC50) were determined (Tables 6-9).

`COc1cc(NC(C(=O)c2c[nH]c3cc(F)ccc23)c2ccc(Cl)cc2OC)cc(OCCO)c1` (single isomer, unassigned) [Compound 1A, 2-(4-chloro-2-methoxyphenyl)-1-(6-fluoro-1H-indol-3-yl)-2-((3-(2-hydroxyethoxy)-5-methoxyphenyl)amino)ethanone]: the results for the pEC50 (in test [1]; in the test with DENV-2 strain 16681) were 7.66 and 8.96, respectively.
For `COc1cc(NC(C(=O)c2c[nH]c3c(C)c(F)ccc23)c2ccc(Cl)cc2OC)cc(OCCO)c1` (single isomer, unassigned) [Compound 2A, 2-(4-chloro-2-methoxyphenyl)-1-(6-fluoro-7-methyl-1H-indol-3-yl)-2-((3-(2-hydroxyethoxy)-5-methoxyphenyl)amino)ethanone], the negative logarithm of the EC50 (pEC50) in test [1] is 7.77; with DENV-2 strain 16681 it was 9.07.
On the same counts, the results for `COc1cc(NC(C(=O)c2c[nH]c3c(C)c(Cl)ccc23)c2ccc(Cl)cc2OC)cc(OCCO)c1` (single isomer, unassigned) [Compound 3A, 2-(4-chloro-2-methoxyphenyl)-1-(6-chloro-7-methyl-1H-indol-3-yl)-2-((3-(2-hydroxyethoxy)-5-methoxyphenyl)amino)ethanone] are 7.74 and 9.62.
In the case of `COc1cc(NC(C(=O)c2c[nH]c3cc(Cl)ccc23)c2ccc(Cl)cc2OC)cc(OCCO)c1` (single isomer, unassigned) [Compound 4A, 1-(6-chloro-1H-indol-3-yl)-2-(4-chloro-2-methoxyphenyl)-2-((3-(2-hydroxyethoxy)-5-methoxyphenyl)amino)ethanone], the pEC50 was 7.70 in test [1] and 9.36 in the test on DENV-2 strain 16681.
As to `COc1cc(NC(C(=O)c2c[nH]c3cc(OC)ccc23)c2ccc(Cl)cc2OC)cc(OCCO)c1` (single isomer, unassigned) [Compound 5A, 2-(4-chloro-2-methoxyphenyl)-2-((3-(2-hydroxyethoxy)-5-methoxyphenyl)amino)-1-(6-methoxy-1H-indol-3-yl)ethanone], the pEC50 in test [1] is 7.72; with DENV-2 strain 16681, 9.30.
For `COc1cc(NC(C(=O)c2c[nH]c3cc(OC)c(C)cc23)c2ccc(Cl)cc2OC)cc(OCCO)c1` (single isomer, unassigned) [Compound 6A, 2-(4-chloro-2-methoxyphenyl)-2-((3-(2-hydroxyethoxy)-5-methoxyphenyl)amino)-1-(6-methoxy-5-methyl-1H-indol-3-yl)ethanone], in that order: above 7.82 and 9.27.
On the same counts, the results for `COc1cc(NC(C(=O)c2c[nH]c3cc(OC)c(F)cc23)c2ccc(Cl)cc2OC)cc(OCCO)c1` (single isomer, unassigned) [Compound 7A, 2-(4-chloro-2-methoxyphenyl)-1-(5-fluoro-6-methoxy-1H-indol-3-yl)-2-((3-(2-hydroxyethoxy)-5-methoxyphenyl)amino)ethanone] are 7.70 and 9.04.
For `COc1cc(NC(C(=O)c2c[nH]c3c(C)cc(F)cc23)c2ccc(Cl)cc2OC)cc(OCCO)c1` (single isomer, unassigned) [Compound 8A, 2-(4-chloro-2-methoxyphenyl)-1-(5-fluoro-7-methyl-1H-indol-3-yl)-2-((3-(2-hydroxyethoxy)-5-methoxyphenyl)amino)ethanone], in that order: 7.77 and 8.92.
For `COc1cc(NC(C(=O)c2c[nH]c3cc(F)c(F)cc23)c2ccc(Cl)cc2OC)cc(OCCO)c1` (single isomer, unassigned) [Compound 9A, 2-(4-chloro-2-methoxyphenyl)-1-(5,6-difluoro-1H-indol-3-yl)-2-((3-(2-hydroxyethoxy)-5-methoxyphenyl)amino)ethanone], the pEC50 in test [1] was 7.72; in the test with DENV-2 strain 16681, 9.10.
In the case of `COc1cc(NC(C(=O)c2c[nH]c3c(F)cc(C)cc23)c2ccc(Cl)cc2OC)cc(OCCO)c1` (single isomer, unassigned) [Compound 10A, 2-(4-chloro-2-methoxyphenyl)-1-(7-fluoro-5-methyl-1H-indol-3-yl)-2-((3-(2-hydroxyethoxy)-5-methoxyphenyl)amino)ethanone], the negative logarithm of the EC50 (pEC50) in test [1] was 7.70; in the test with DENV-2 strain 16681, 8.49.
In the case of `COc1cc(NC(C(=O)c2c[nH]c3c(F)c(F)ccc23)c2ccc(Cl)cc2OC)cc(OCCO)c1` (single isomer, unassigned) [Compound 11B, 2-(4-chloro-2-methoxyphenyl)-1-(6,7-difluoro-1H-indol-3-yl)-2-((3-(2-hydroxyethoxy)-5-methoxyphenyl)amino)ethanone], the negative logarithm of the EC50 (pEC50) in test [1] is 7.60; in the test on DENV-2 strain 16681 it was 9.00.

The values are drawn from US9944598B2, “Mono- or di-substituted indole derivatives as dengue viral replication inhibitors” (priority 2014, dated 2018).
